Data as given in ChEMBL document CHEMBL1201862, “PubChem BioAssay data set” (2004).
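Following 48 hours of exposure in 96-well plates, responses at five concentrations were used to interpolate endpoints linearly. GI50 marks 50% less growth.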 Activity calls are given as the source filed them. No stated cut-off is given here; in the data, active = GI50 up to about 1.1 µM and inactive = higher.

Tests used:
Experiment in all cases: NCI anticancer screen, dose series, 48 h
ACHN = tested on: ACHN
CAKI-1 = tested on: CAKI-1
COLO 205 = tested on: COLO 205
DU-145 = tested on: DU-145
HOP-92 = tested on: HOP-92
LOX IMVI = tested on: LOX IMVI
M14 = tested on: M14
MDA-MB-231 = tested on: MDA-MB-231
Malme-3M = tested on: Malme-3M
NCI-H226 = tested on: NCI-H226
NCI-H23 = tested on: NCI-H23
NCI-H460 = tested on: NCI-H460
OVCAR-3 = tested on: OVCAR-3
OVCAR-4 = tested on: OVCAR-4
PC-3 = tested on: PC-3
RPMI-8226 = tested on: RPMI-8226
RXF 393 = tested on: RXF 393
SK-MEL-28 = tested on: SK-MEL-28
SNB-19 = tested on: SNB-19
T47D = tested on: T47D

Compound | GI50 (ACHN) | GI50 (CAKI-1) | GI50 (COLO 205) | GI50 (DU-145) | GI50 (HOP-92) | GI50 (LOX IMVI) | GI50 (M14) | GI50 (MDA-MB-231) | GI50 (Malme-3M) | GI50 (NCI-H226) | GI50 (NCI-H23) | GI50 (NCI-H460) | GI50 (OVCAR-3) | GI50 (OVCAR-4) | GI50 (PC-3) | GI50 (RPMI-8226) | GI50 (RXF 393) | GI50 (SK-MEL-28) | GI50 (SNB-19) | GI50 (T47D)
CN(C)Cc1cc(C(F)(F)F)ccc1C(O)(c1ccccc1)c1ccccc1 | 16.3 µM (inactive) | 12.8 µM (inactive) | 8.05 µM (inactive) | 26.7 µM (inactive) | 13.6 µM (inactive) | 15.8 µM (inactive) | 12.4 µM (inactive) | 11.9 µM (inactive) | 15.2 µM (inactive) | 15.1 µM (inactive) | 26.2 µM (inactive) | 14.6 µM (inactive) | 27.8 µM (inactive) | 16.4 µM (inactive) | 14.1 µM (inactive) | 5.51 µM (inactive) | 11.8 µM (inactive) | 14.9 µM (inactive) | 16.7 µM (inactive) | 18.2 µM (inactive)
CCON=C1C(C)(C)C(C)(C)C(C)(C)C1(C)C | > 100 µM (inactive) | > 100 µM (inactive) | > 100 µM (inactive) | > 100 µM (inactive) | > 100 µM (inactive) | > 100 µM (inactive) | > 100 µM (inactive) | > 100 µM (inactive) | > 100 µM (inactive) | > 100 µM (inactive) | > 100 µM (inactive) | > 100 µM (inactive) | > 100 µM (inactive) | > 100 µM (inactive) | > 100 µM (inactive) | > 100 µM (inactive) | > 100 µM (inactive) | > 100 µM (inactive) | > 100 µM (inactive) | > 100 µM (inactive)
Cc1c(C(=O)O)sc2nc[nH]c(=O)c12 | > 100 µM (inactive) | 50.2 µM (inactive) | > 100 µM (inactive) | > 100 µM (inactive) | 67.1 µM (inactive) | > 100 µM (inactive) | > 100 µM (inactive) | > 100 µM (inactive) | > 100 µM (inactive) | 25.1 µM (inactive) | > 100 µM (inactive) | > 100 µM (inactive) | > 100 µM (inactive) | > 100 µM (inactive) | > 100 µM (inactive) | > 100 µM (inactive) | > 100 µM (inactive) | > 100 µM (inactive) | > 100 µM (inactive) | > 100 µM (inactive)
CNC(=O)C(C)NC(=O)C(Cc1ccccc1)NC(=O)c1ccccc1 (stereo not given) | > 100 µM (inactive) | > 100 µM (inactive) | > 100 µM (inactive) | > 100 µM (inactive) | > 100 µM (inactive) | > 100 µM (inactive) | > 100 µM (inactive) | > 100 µM (inactive) | > 100 µM (inactive) | > 100 µM (inactive) | > 100 µM (inactive) | > 100 µM (inactive) | > 100 µM (inactive) | > 100 µM (inactive) | > 100 µM (inactive) | > 100 µM (inactive) | > 100 µM (inactive) | > 100 µM (inactive) | > 100 µM (inactive) | > 100 µM (inactive)
COc1ccc(SCc2cc(OC)c(OC)c(OC)c2)cc1OC | 51.8 µM (inactive) | 44.5 µM (inactive) | 50.4 µM (inactive) | > 100 µM (inactive) | 25.6 µM (inactive) | 51.4 µM (inactive) | 64.1 µM (inactive) | 57 µM (inactive) | 55.2 µM (inactive) | 51.6 µM (inactive) | 27.5 µM (inactive) | > 79.6 µM (inactive) | > 56 µM (inactive) | 22 µM (inactive) | 31.3 µM (inactive) | 33.3 µM (inactive) | > 95.5 µM (inactive) | > 73.8 µM (inactive) | > 81.1 µM (inactive) | 13.4 µM (inactive)
CCOC(=O)C(=CNC(=S)Nc1c(CC)cccc1CC)C(=O)OCC | > 100 µM (inactive) | > 100 µM (inactive) | > 100 µM (inactive) | > 100 µM (inactive) | 94.4 µM (inactive) | > 100 µM (inactive) | > 100 µM (inactive) | > 100 µM (inactive) | > 100 µM (inactive) | > 100 µM (inactive) | > 100 µM (inactive) | > 100 µM (inactive) | > 100 µM (inactive) | > 100 µM (inactive) | > 100 µM (inactive) | > 100 µM (inactive) | > 100 µM (inactive) | > 100 µM (inactive) | > 100 µM (inactive) | > 100 µM (inactive)
O=C(CCCCCCCCC(=O)NN1C(=O)/C(=C\c2ccc(O)c(O)c2)SC1c1ccc(Cl)cc1)NN1C(=O)/C(=C\c2ccc(O)c(O)c2)SC1c1ccc(Cl)cc1 (stereo not given) | 18.3 µM (inactive) | 9.12 µM (inactive) | 24.8 µM (inactive) | 19.9 µM (inactive) | 11.5 µM (inactive) | 13.6 µM (inactive) | 20.7 µM (inactive) | 35.6 µM (inactive) | 23.7 µM (inactive) | 59.3 µM (inactive) | 15.5 µM (inactive) | 30.6 µM (inactive) | 5.45 µM (inactive) | 31.9 µM (inactive) | 20.6 µM (inactive) | 2.72 µM (inactive) | 15.8 µM (inactive) | > 54.7 µM (inactive) | 16.9 µM (inactive) | 31.9 µM (inactive)
c1ccc(C/C(=N\Nc2nc3ccccc3[nH]2)c2ccccn2)cc1 | 0.0131 µM (active) | 0.056 µM (active) | < 0.01 µM (active) | 0.291 µM (active) | 0.0206 µM (active) | 0.119 µM (active) | < 0.0288 µM (active) | 0.0396 µM (active) | < 0.0347 µM (active) | < 0.0279 µM (active) | 0.019 µM (active) | 0.126 µM (active) | < 0.01 µM (active) | < 0.01 µM (active) | < 0.01 µM (active) | < 0.01 µM (active) | 0.166 µM (active) | 0.231 µM (active) | 0.254 µM (active) | < 0.01 µM (active)
C=CCc1cc(C=C(C#N)C#N)cc(OC)c1O | > 100 µM (inactive) | > 100 µM (inactive) | 52.6 µM (inactive) | > 100 µM (inactive) | 33.5 µM (inactive) | 50.2 µM (inactive) | > 100 µM (inactive) | > 100 µM (inactive) | > 100 µM (inactive) | > 100 µM (inactive) | 79.8 µM (inactive) | > 100 µM (inactive) | 35.2 µM (inactive) | > 100 µM (inactive) | 35.8 µM (inactive) | 39.4 µM (inactive) | 24.8 µM (inactive) | > 100 µM (inactive) | > 100 µM (inactive) | 38.9 µM (inactive)
COc1ccc(-c2cc(=O)c3c(O)c(OC)c(O)cc3o2)cc1O | 13.8 µM (inactive) | 13.9 µM (inactive) | 20.6 µM (inactive) | 7.64 µM (inactive) | 15 µM (inactive) | 3.51 µM (inactive) | 3.4 µM (inactive) | 5.51 µM (inactive) | 1.3 µM (inactive) | 35 µM (inactive) | 17.7 µM (inactive) | 3.3 µM (inactive) | 9.04 µM (inactive) | 50.5 µM (inactive) | 10 µM (inactive) | 2.45 µM (inactive) | 9.4 µM (inactive) | 22.5 µM (inactive) | 13.6 µM (inactive) | 5.94 µM (inactive)
